Results as given in US20130267594A1, “PROLYL HYDROXYLASE INHIBITORS AS RADIATION MITIGATORS AND RADIATION PROTECTORS” (priority 2010, published 2013).

Key:
[1] = molecular target: T1, KDM4D (Homo sapiens, UniProt Q6B0I6); experiment: KDM4D demethylation of H3K9me3 in transfected cells, immunofluorescent staining (FIG. 2); assay type: cell-based
T1 construct: expressed in transfected cells
T1 sequence (Q6B0I6 1-523): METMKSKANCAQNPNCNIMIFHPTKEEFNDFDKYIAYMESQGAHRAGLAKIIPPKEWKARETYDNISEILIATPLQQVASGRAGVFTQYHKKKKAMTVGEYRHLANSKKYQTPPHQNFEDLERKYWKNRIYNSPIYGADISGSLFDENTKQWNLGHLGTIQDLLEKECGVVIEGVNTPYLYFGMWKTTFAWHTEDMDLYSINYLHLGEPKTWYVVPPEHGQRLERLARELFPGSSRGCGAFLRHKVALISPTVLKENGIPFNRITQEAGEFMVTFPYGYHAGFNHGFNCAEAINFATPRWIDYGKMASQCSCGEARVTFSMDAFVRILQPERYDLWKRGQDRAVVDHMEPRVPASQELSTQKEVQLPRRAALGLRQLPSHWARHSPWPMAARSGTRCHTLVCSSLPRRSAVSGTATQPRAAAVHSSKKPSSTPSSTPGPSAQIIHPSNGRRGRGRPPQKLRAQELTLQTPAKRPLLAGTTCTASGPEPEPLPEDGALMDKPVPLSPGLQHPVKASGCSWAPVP
Protocol: HeLa cells were transiently transfected with either vector or KDM4D, followed by incubation with either solvent (PBS, control) or DMOG (100 μM) and then visualized by fluorescent microscopy.
Immunofluorescence: Cells (on cover slides) were fixed in phosphate-buffered saline (PBS) containing 2% paraformaldehyde. Cells were permeabilized in 0.2% Triton X-100 in PBS for 5mins, and then blocked in fetal bovine serum for 20 min, Primary antibodies were prepared in 10% fetal bovine serum supplemented with 0.2% saponin. After a 1 h incubation with primary antibody, cells were washed three times with 0.2% Tween-20 and incubated for 1 h in secondary antibody (conjugated to either Texas Red or FITC; Santa Cruz Biotechnology, CA). Slides were mounted with Fluoromount-G (Southern Biotech, AL). […]
KDMs utilize an Fe-oxo intermediate to form an unstable hydroxy-methyl intermediate, which spontaneously releases formaldehyde, leading to removal of a single methyl group. […] In FIG. 2B, Murine Embryonic Fibroblasts (MEFs) were transfected with empty vector or KDM4D, which specifically demethylates H3K9me3, and the levels of chromatin associated H3K9me3 measured by immunofluorescent staining using an anti-H3K9me3 antibody. In untreated cells, high levels of H3K9me3 were detected, and transient expression of the H3K9me3 demethylase KDM4D essentially demethylated the entire nuclear H3K9me3 signal. […]

[2] = molecular target: T2, KDM4A (Homo sapiens, UniProt O75164); experiment: H3K9me3 immunofluorescent staining in HEK293T cells transiently expressing KDM4A (FIG. 10B); assay type: cell-based; settings: DMOG 1 mM 24 hrs
T2 construct: expressed in transfected cells; host or cells: HEK293T cells
T2 sequence (O75164 1-1064): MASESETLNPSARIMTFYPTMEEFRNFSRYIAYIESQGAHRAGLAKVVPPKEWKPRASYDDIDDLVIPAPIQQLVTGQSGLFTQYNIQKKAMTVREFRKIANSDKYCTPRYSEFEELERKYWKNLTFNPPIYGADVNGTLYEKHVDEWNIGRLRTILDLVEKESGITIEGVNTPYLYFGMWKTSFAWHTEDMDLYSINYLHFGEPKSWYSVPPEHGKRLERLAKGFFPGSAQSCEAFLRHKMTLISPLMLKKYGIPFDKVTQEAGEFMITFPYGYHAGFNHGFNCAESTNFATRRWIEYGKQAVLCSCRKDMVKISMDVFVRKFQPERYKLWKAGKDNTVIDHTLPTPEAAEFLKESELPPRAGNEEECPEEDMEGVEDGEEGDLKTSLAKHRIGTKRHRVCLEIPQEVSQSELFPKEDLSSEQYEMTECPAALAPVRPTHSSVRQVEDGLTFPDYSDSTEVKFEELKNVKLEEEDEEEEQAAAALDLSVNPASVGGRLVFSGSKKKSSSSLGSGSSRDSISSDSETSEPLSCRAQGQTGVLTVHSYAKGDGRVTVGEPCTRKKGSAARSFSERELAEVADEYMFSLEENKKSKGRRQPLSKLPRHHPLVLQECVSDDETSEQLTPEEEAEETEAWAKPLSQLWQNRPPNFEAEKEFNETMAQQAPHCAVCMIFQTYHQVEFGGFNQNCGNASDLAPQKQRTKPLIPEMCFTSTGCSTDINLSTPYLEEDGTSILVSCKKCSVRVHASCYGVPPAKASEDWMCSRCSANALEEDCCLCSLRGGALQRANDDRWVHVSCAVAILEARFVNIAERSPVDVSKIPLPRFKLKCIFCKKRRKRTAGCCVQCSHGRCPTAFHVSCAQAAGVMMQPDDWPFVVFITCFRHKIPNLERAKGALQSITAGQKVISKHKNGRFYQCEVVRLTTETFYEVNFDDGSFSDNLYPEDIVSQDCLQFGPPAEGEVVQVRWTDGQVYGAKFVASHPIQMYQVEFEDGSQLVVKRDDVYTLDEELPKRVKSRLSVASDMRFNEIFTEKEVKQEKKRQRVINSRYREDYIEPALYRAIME

COC(=O)CNC(=O)C(=O)OC [DMOG, dimethyloxalylglycine]
ability of KDM4D to demethylate H3K9me3 ([1]; cells expressing KDM4D, DMOG 100 μM, anti-H3K9me3 staining): inhibited the ability of KDM4D to demethylate H3K9me3 | level of expression of the KDM4D enzyme ([1]; control experiments to FIG. 2): did not alter the level of expression of the KDM4D enzyme | H3K9me3 levels in cells expressing KDM4A [2]: restored H3K9me3 levels to near normal
